Key:
cholesterol in serum [1] = assay: Effect of reducing lipid level in blood: percent inhibition of cholesterol in serum of hamsters fed 1% cholesterol and 0.5% cholic acid diet; type: in vivo, Male golden Syrian hamsters; settings: Mesocricetus auratus, po, 120 h, orally once a day for 5 days, relative to control group
Description: The effect of reducing a lipid level in blood by the action of the compounds according to the present invention was determined as follows:
Male golden Syrian hamsters weighing from 80 to 100 g were randomly divided into groups. The hamsters were first fed standard laboratory diets (solid feed MF-1 for mouse/rat/hamster, manufactured by Oriental Yeast Industries, KK) for 3 days. Then, they were fed the experimental diet containing 1% cholesterol and 0.5% cholic acid (manufactured by Oriental Yeast Industries, KK), ad libitum. At the same time, the compounds of the invention formulated in a shown dose (25 mg or 50 mg/10 ml water/kg) were administrated to the animals orally once a day at a determined time for 5 days. Water was administrated orally to the hamsters of control group in an amount of 10 ml per 1 kg of body weight. After five days of administrating the compounds, they were anesthetized with Pentobarbital Na (Nembutal injection, manufactured by Dainabbot) and three hours after the final administration of the test compound, a blood samples (2-3 ml) was taken from abdominal cava. The serum was separated by centrifuging.
The cholesterol level in the serum was determined by using a blood cholesterol measuring kit, Determina-TC5 manufactured by Kyowa Medix Co. The results are represented by percent inhibition (%) of cholesterol level in serum relative to that of the control group, and shown in the following Table 4, each compound number corresponding to that in the above Table 3.

[2] = target: ACAT (acyl coenzyme cholesterol acyltransferase); assay: ACAT inhibitory action in hamster microsomes (cholesteryl-[14C] oleate formation); type: biochemical; settings: radio-labelled oleoyl coenzyme A
Description: The ACAT inhibitory action of the compounds according to the present invention was measured as follows:
ACAT activity in the hamster microsomes was determined by measuring the rate of radio-active cholesteryl-[^14 C] oleate formation from cholesterol and radio-labelled oleoyl coenzyme A (^14 C) with or without test compound.
Calculations of IC50 value were made using data of the percent inhibition at each compound concentration. The results are shown in the following Table 5, each compound number corresponding to that in Table 3.

cholesterol in serum [3] = assay: Effect of reducing lipid level in blood: percent inhibition of cholesterol in serum of hamsters fed 1% cholesterol and 0.5% cholic acid diet; type: in vivo, Male golden Syrian hamsters; settings: Mesocricetus auratus, po, 120 h, orally once a day for 5 days, relative to control group; remark: listed apart in the source
Acute toxicity test = settings: rat, in vivo, po; P.O., suspended in 1% tragacanth solution, SD male and female rats, seven day observation
Description: A compound according to the present invention suspended in a 1% tragacanth solution was administrated orally to SD male and female rats. Then, the number of fatal rats was counted during seven day observation. The LD50 value is shown in the following Table 6, the compound number corresponding to that in the above Table 3.

Structure (SMILES): CCCCCCc1ccc(NC(=O)Nc2c(C(C)C)cccc2C(C)C)cc1 [compound 17]
- inhibition in vivo at 25 mg/kg (cholesterol in serum [1]): 60%
- IC50 [2]: 11 nM

Structure (SMILES): CCCCCCCCc1ccc(NC(=O)Nc2c(C(C)C)cccc2C(C)C)cc1 [Compound No. 8]
- inhibition in vivo at 25 mg/kg (cholesterol in serum [1]): 55%
- IC50 [2]: 4 nM
- inhibition in vivo at 5 mg/kg (cholesterol in serum [3]): 35%
- LD50 at 168 h (Acute toxicity test): > 2000 mg/kg

Structure (SMILES): CCCCCCCCc1ccc(NC(=O)Nc2c(Cl)ccc(C)c2Cl)cc1 [compound 11]
- inhibition in vivo at 25 mg/kg (cholesterol in serum [1]): 47%

Structure (SMILES): CCCCCCCCc1ccc(NC(=O)Nc2c(C)cccc2C)cc1 [compound 5]
- inhibition in vivo at 25 mg/kg (cholesterol in serum [1]): 44%

Structure (SMILES): CCCCCCCCCCc1ccc(NC(=O)Nc2c(C(C)C)cccc2C(C)C)cc1 [compound 20]
- inhibition in vivo at 25 mg/kg (cholesterol in serum [1]): 59%
- IC50 [2]: 12 nM

Structure (SMILES): CCCCCCCCc1ccc(NC(=O)Nc2c(Cl)cccc2Cl)cc1 [Compound No. 2, 1-(4-octylphenyl)-3-(2,6-dichlorophenyl)urea]
- inhibition in vivo at 25 mg/kg (cholesterol in serum [1]): 49%

Structure (SMILES): CCCCCCCCc1ccc(NC(=O)Nc2c(Br)cccc2Br)cc1 [compound 4]
- inhibition in vivo at 25 mg/kg (cholesterol in serum [1]): 55%

Structure (SMILES): CCCCCCCCCc1ccc(NC(=O)Nc2c(C(C)C)cccc2C(C)C)cc1 [Compound No. 19, 1-(4-nonylphenyl)-3-(2,6-diisopropylphenyl)urea]
- inhibition in vivo at 25 mg/kg (cholesterol in serum [1]): 64%
- IC50 [2]: 10 nM

Structure (SMILES): CCCCCCCc1ccc(NC(=O)Nc2c(C(C)C)cccc2C(C)C)cc1 [compound 18]
- inhibition in vivo at 25 mg/kg (cholesterol in serum [1]): 49%
- IC50 [2]: 6 nM

Structure (SMILES): CCCCCCCCc1ccc(NC(=O)Nc2c(CC)cccc2CC)cc1 [compound 7]
- inhibition in vivo at 25 mg/kg (cholesterol in serum [1]): 48%

Structure (SMILES): CCCCCc1ccc(NC(=O)Nc2c(C(C)C)cccc2C(C)C)cc1 [compound 16]
- inhibition in vivo at 25 mg/kg (cholesterol in serum [1]): 34%

Structure (SMILES): CC(C)c1cccc(C(C)C)c1NC(=O)Nc1ccc(C(C)(C)C)cc1 [Compound No. 26, reference compound]
- inhibition in vivo at 25 mg/kg (cholesterol in serum [1]): 19%

Structure (SMILES): CCCCCCCCc1ccc(NC(=O)Nc2c(OC)cccc2OC)cc1 [compound 12]
- inhibition in vivo at 25 mg/kg (cholesterol in serum [1]): 54%

Structure (SMILES): CCCCCCCCc1ccccc1NC(=O)Nc1c(C(C)C)cccc1C(C)C [compound 13]
- inhibition in vivo at 25 mg/kg (cholesterol in serum [1]): 54%

From US5063247A, “Diphenylurea derivatives” (Mitsubishi Kasei Corporation, priority 1989, dated 1991)
